Among the data in BindingDB's records for PubMed 35063731 (Chinese Academy of Sciences, 2022) are IC50 values, retold here.

SMILES strings stand for the structures.

The target in experiment [1] is T1, Maltase-glucoamylase (Homo sapiens, UniProt O43451). Briefly: Inhibition of alpha-glucosidase (unknown origin).
The target in experiment [2] is T1, Maltase-glucoamylase. Briefly: Inhibition of alpha-Glucosidase (unknown origin) using pNPG as substrate incubated for 20 mins by micro plate reader analysis.
Experiment [3] is described as follows: Inhibition of influenza A virus Neuraminidase using 2-(4-methylumbelliferyl)-a-D-acetylneuraminic acid as substrate incubated for 30 mins by fluorescence based analysis.

T1 sequence (O43451 whole entry): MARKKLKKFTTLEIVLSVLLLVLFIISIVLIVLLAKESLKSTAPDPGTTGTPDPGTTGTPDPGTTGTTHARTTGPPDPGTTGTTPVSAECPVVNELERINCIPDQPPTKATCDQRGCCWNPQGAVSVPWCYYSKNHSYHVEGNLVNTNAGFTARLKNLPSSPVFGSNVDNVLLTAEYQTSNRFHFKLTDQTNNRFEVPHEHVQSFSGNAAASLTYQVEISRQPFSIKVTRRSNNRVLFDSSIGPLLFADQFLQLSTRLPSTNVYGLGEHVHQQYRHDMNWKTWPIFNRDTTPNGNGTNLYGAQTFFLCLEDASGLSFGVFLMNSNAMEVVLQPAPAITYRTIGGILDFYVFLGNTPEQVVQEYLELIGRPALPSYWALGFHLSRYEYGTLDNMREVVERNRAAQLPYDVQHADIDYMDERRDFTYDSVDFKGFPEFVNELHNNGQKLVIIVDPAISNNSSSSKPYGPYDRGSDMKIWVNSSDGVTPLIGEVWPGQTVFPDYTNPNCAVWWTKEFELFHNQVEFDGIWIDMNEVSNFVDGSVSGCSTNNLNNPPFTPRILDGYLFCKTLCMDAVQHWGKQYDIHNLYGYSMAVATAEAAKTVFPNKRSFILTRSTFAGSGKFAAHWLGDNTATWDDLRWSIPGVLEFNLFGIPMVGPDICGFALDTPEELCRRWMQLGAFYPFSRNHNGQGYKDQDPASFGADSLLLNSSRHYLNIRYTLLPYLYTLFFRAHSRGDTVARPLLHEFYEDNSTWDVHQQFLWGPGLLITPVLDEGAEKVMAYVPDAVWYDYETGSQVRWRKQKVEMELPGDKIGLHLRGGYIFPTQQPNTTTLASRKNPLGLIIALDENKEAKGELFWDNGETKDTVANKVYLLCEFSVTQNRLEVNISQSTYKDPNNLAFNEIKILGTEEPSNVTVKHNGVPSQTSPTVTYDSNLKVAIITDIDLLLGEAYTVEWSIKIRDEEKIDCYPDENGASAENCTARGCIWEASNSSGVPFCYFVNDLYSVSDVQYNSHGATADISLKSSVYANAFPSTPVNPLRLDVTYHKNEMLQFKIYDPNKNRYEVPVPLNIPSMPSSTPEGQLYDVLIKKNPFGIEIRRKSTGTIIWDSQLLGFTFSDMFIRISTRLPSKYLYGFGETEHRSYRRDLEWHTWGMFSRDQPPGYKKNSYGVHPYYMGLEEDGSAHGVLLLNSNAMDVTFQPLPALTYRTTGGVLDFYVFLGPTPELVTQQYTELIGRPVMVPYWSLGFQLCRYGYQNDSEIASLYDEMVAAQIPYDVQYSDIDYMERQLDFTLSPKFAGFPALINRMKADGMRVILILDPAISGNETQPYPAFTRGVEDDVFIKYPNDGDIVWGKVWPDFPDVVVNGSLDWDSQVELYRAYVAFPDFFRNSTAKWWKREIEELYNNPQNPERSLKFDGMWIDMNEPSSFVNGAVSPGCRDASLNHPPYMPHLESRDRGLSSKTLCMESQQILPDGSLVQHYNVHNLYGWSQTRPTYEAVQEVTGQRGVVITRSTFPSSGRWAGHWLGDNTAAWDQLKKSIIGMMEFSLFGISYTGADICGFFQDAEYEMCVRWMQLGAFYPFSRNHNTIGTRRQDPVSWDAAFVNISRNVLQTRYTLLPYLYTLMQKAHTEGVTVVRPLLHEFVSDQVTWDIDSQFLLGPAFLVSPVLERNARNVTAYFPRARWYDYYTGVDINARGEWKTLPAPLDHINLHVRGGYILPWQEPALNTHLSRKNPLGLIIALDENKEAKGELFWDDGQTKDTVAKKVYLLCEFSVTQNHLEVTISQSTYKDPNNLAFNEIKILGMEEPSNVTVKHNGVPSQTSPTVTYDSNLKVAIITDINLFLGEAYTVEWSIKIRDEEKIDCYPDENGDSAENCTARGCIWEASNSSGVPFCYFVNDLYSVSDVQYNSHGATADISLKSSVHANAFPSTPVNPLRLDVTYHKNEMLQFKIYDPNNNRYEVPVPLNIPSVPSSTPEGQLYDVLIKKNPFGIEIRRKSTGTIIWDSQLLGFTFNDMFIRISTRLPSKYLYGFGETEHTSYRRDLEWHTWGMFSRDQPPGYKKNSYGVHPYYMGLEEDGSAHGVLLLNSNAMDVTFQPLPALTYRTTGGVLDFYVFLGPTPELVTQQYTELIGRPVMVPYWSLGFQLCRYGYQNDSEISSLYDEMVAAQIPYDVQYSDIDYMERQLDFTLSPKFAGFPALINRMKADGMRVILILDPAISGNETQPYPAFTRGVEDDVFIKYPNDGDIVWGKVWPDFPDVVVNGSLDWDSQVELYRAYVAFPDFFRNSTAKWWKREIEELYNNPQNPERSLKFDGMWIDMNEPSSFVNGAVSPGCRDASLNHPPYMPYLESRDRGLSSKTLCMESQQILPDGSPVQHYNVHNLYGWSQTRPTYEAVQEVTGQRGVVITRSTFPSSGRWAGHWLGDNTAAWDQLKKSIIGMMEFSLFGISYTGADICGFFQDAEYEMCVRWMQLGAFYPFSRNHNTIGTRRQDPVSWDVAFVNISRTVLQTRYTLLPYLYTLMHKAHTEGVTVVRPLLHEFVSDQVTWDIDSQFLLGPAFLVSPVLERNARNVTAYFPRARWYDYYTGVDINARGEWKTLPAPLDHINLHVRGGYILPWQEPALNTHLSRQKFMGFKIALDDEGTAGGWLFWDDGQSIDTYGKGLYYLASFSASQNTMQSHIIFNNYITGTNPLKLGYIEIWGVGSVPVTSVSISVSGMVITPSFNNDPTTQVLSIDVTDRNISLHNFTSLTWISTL

`CC(C)=CCc1cc(C[C@@]2(C(=O)O)OC(=O)C(OC(C)(C)[C@@H](O)Cc3cc(C[C@@]4(C(=O)O)OC(=O)C(O)=C4c4ccc(O)cc4)ccc3O)=C2c2ccc(O)cc2)ccc1O`: in experiment [1], it took 10.5 µM to reach half-maximal inhibition (IC50).

Take `COc1cc2c(c(O)c1CO)C(=O)OC[C@@H]2O`: the IC50 (in general, the midpoint of a concentration-inhibition curve) in experiment [2] came out at 1410 µM.

In turn, `COC(=O)[C@@]1(C(=O)C(C)=O)C(C)=C(C)C=C2[C@]3(C=O)CC[C@H](OC(C)=O)C(C)(C)[C@H]3CC[C@@]21C` showed an IC50 in experiment [3] of 0.0081 µM.
